Measurements published in patent publication US10765114B2, “4-amino-6-(pyridyl and 2-substitutedphenyl)-picolinates and 6-amino-2-(pyridyl and 2-substitutedphenyl)-pyrimidine-4-carboxylates and their use as herbicides” (Dow AgroSciences LLC, priority 2013, dated 2020).

These compounds were tested on Key Grass and Sedge Weeds as well as Grass Crops (assay: Post-Emergent Test II (Table 6)). Conditions: post-emergence, 336 h, ZEAMX: maize, corn (Zea mays), 70 g ai/ha, 14 days after application, read-out: Visual Growth Reduction (%) 14 Days After Application ZEAMX.
Assay type: in vivo
Method in brief: (§1)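 Visual injury ratings (0 = no injury, 100 = complete kill) were taken 14 days after treatment relative to untreated plants. Seedlings at the first or second true leaf stage received an overhead spray at 187 L/ha, and solvent-blank sprayed plants served as controls.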
For `COC(=O)c1nc(-c2ccc(C(F)(F)F)nc2)c(F)c(N)c1Cl` [Compound 59, methyl 4-amino-5-chloro-3-fluoro-6′-(trifluoromethyl)-[2,3′-bipyridine]-6-carboxylate], the pest or weed control at 70 g/ha was 75 to 84%.

Same assay, conditions: post-emergence, 336 h, ZEAMX: maize, corn (Zea mays), 140 g ai/ha, 14 days after application, read-out: Visual Growth Reduction (%) 14 Days After Application ZEAMX
`COC(=O)c1nc(-c2ccc(C(F)(F)F)nc2)c(F)c(N)c1Cl` [Compound 59, methyl 4-amino-5-chloro-3-fluoro-6′-(trifluoromethyl)-[2,3′-bipyridine]-6-carboxylate] showed a pest or weed control at 140 g/ha of 75 to 84%.

The compounds below were run on Key Broadleaf Weed and Crop Species (assay: Post-Emergent Test II (Table 5)). Conditions: Abutilon theophrasti, post-emergence, 336 h, ABUTH: velvetleaf (Abutilon theophrasti), application rate 70 (kg ai/ha; footnote: g ai/ha), read-out: Visual Growth Reduction (%) 14 Days After Application ABUTH.
Assay type: in vivo
Method in brief: as §1
`COC(=O)c1nc(-c2ccc(C(F)(F)F)nc2)c(F)c(N)c1Cl` [Compound 59, methyl 4-amino-5-chloro-3-fluoro-6′-(trifluoromethyl)-[2,3′-bipyridine]-6-carboxylate] gave a pest or weed control at 70 g/ha of 85 to 94%.

Same assay, conditions: Abutilon theophrasti, post-emergence, 336 h, ABUTH: velvetleaf (Abutilon theophrasti), application rate 140 (kg ai/ha; footnote: g ai/ha), read-out: Visual Growth Reduction (%) 14 Days After Application ABUTH
`COC(=O)c1nc(-c2ccc(C(F)(F)F)nc2)c(F)c(N)c1Cl` [Compound 59, methyl 4-amino-5-chloro-3-fluoro-6′-(trifluoromethyl)-[2,3′-bipyridine]-6-carboxylate] gave a pest or weed control at 140 g/ha of 95 to 100%.

Same assay, conditions: Amaranthus retroflexus, post-emergence, 336 h, AMARE: redroot pigweed (Amaranthus retroflexus), application rate 70 (kg ai/ha; footnote: g ai/ha), read-out: Visual Growth Reduction (%) 14 Days After Application AMARE
`COC(=O)c1nc(-c2ccc(C(F)(F)F)nc2)c(F)c(N)c1Cl` [Compound 59, methyl 4-amino-5-chloro-3-fluoro-6′-(trifluoromethyl)-[2,3′-bipyridine]-6-carboxylate] showed a pest or weed control at 70 g/ha of 85 to 94%.

Same assay, conditions: Amaranthus retroflexus, post-emergence, 336 h, AMARE: redroot pigweed (Amaranthus retroflexus), application rate 140 (kg ai/ha; footnote: g ai/ha), read-out: Visual Growth Reduction (%) 14 Days After Application AMARE
Work on `COC(=O)c1nc(-c2ccc(C(F)(F)F)nc2)c(F)c(N)c1Cl` [Compound 59, methyl 4-amino-5-chloro-3-fluoro-6′-(trifluoromethyl)-[2,3′-bipyridine]-6-carboxylate] yielded a pest or weed control at 140 g/ha of 95 to 100%.

Same assay, conditions: Brassica napus, post-emergence, 336 h, BRSSS: oilseed rape, canola (Brassica napus), application rate 70 (kg ai/ha; footnote: g ai/ha), read-out: Visual Growth Reduction (%) 14 Days After Application BRSSS
`COC(=O)c1nc(-c2ccc(C(F)(F)F)nc2)c(F)c(N)c1Cl` [Compound 59, methyl 4-amino-5-chloro-3-fluoro-6′-(trifluoromethyl)-[2,3′-bipyridine]-6-carboxylate] showed a pest or weed control at 70 g/ha of 60 to 74%.

Same assay, conditions: Brassica napus, post-emergence, 336 h, BRSSS: oilseed rape, canola (Brassica napus), application rate 140 (kg ai/ha; footnote: g ai/ha), read-out: Visual Growth Reduction (%) 14 Days After Application BRSSS
Compound `COC(=O)c1nc(-c2ccc(C(F)(F)F)nc2)c(F)c(N)c1Cl` [Compound 59, methyl 4-amino-5-chloro-3-fluoro-6′-(trifluoromethyl)-[2,3′-bipyridine]-6-carboxylate] has a pest or weed control at 140 g/ha of 60 to 74%.

Same assay, conditions: Chenopodium album, post-emergence, 336 h, CHEAL: lambsquarters (Chenopodium album), application rate 70 (kg ai/ha; footnote: g ai/ha), read-out: Visual Growth Reduction (%) 14 Days After Application CHEAL
Work on `COC(=O)c1nc(-c2ccc(C(F)(F)F)nc2)c(F)c(N)c1Cl` [Compound 59, methyl 4-amino-5-chloro-3-fluoro-6′-(trifluoromethyl)-[2,3′-bipyridine]-6-carboxylate] yielded a pest or weed control at 70 g/ha of 95 to 100%.

Same assay, conditions: Chenopodium album, post-emergence, 336 h, CHEAL: lambsquarters (Chenopodium album), application rate 140 (kg ai/ha; footnote: g ai/ha), read-out: Visual Growth Reduction (%) 14 Days After Application CHEAL
Compound `COC(=O)c1nc(-c2ccc(C(F)(F)F)nc2)c(F)c(N)c1Cl` [Compound 59, methyl 4-amino-5-chloro-3-fluoro-6′-(trifluoromethyl)-[2,3′-bipyridine]-6-carboxylate] has a pest or weed control at 140 g/ha of 95 to 100%.

Same assay, conditions: Euphorbia heterophylla, post-emergence, 336 h, EPHHL: wild poinsettia (Euphorbia heterophylla), application rate 70 (kg ai/ha; footnote: g ai/ha), read-out: Visual Growth Reduction (%) 14 Days After Application EPHHL
With `COC(=O)c1nc(-c2ccc(C(F)(F)F)nc2)c(F)c(N)c1Cl` [Compound 59, methyl 4-amino-5-chloro-3-fluoro-6′-(trifluoromethyl)-[2,3′-bipyridine]-6-carboxylate] the pest or weed control at 70 g/ha was 95 to 100%.

Same assay, conditions: Euphorbia heterophylla, post-emergence, 336 h, EPHHL: wild poinsettia (Euphorbia heterophylla), application rate 140 (kg ai/ha; footnote: g ai/ha), read-out: Visual Growth Reduction (%) 14 Days After Application EPHHL
`COC(=O)c1nc(-c2ccc(C(F)(F)F)nc2)c(F)c(N)c1Cl` [Compound 59, methyl 4-amino-5-chloro-3-fluoro-6′-(trifluoromethyl)-[2,3′-bipyridine]-6-carboxylate] gave a pest or weed control at 140 g/ha of 95 to 100%.

Same assay, conditions: Helianthus annuus, post-emergence, 336 h, HELAN: sunflower (Helianthus annuus), application rate 70 (kg ai/ha; footnote: g ai/ha), read-out: Visual Growth Reduction (%) 14 Days After Application HELAN
`COC(=O)c1nc(-c2ccc(C(F)(F)F)nc2)c(F)c(N)c1Cl` [Compound 59, methyl 4-amino-5-chloro-3-fluoro-6′-(trifluoromethyl)-[2,3′-bipyridine]-6-carboxylate] was tested, and the pest or weed control at 70 g/ha was 95 to 100%.

Same assay, conditions: Helianthus annuus, post-emergence, 336 h, HELAN: sunflower (Helianthus annuus), application rate 140 (kg ai/ha; footnote: g ai/ha), read-out: Visual Growth Reduction (%) 14 Days After Application HELAN
Compound `COC(=O)c1nc(-c2ccc(C(F)(F)F)nc2)c(F)c(N)c1Cl` [Compound 59, methyl 4-amino-5-chloro-3-fluoro-6′-(trifluoromethyl)-[2,3′-bipyridine]-6-carboxylate] has a pest or weed control at 140 g/ha of 95 to 100%.

Same assay, conditions: Viola tricolor, post-emergence, 336 h, VIOTR: wild pansy (Viola tricolor), application rate 70 (kg ai/ha; footnote: g ai/ha), read-out: Visual Growth Reduction (%) 14 Days After Application VIOTR
Compound `COC(=O)c1nc(-c2ccc(C(F)(F)F)nc2)c(F)c(N)c1Cl` [Compound 59, methyl 4-amino-5-chloro-3-fluoro-6′-(trifluoromethyl)-[2,3′-bipyridine]-6-carboxylate] has a pest or weed control at 70 g/ha of 60 to 74%.

Same assay, conditions: Viola tricolor, post-emergence, 336 h, VIOTR: wild pansy (Viola tricolor), application rate 140 (kg ai/ha; footnote: g ai/ha), read-out: Visual Growth Reduction (%) 14 Days After Application VIOTR
`COC(=O)c1nc(-c2ccc(C(F)(F)F)nc2)c(F)c(N)c1Cl` [Compound 59, methyl 4-amino-5-chloro-3-fluoro-6′-(trifluoromethyl)-[2,3′-bipyridine]-6-carboxylate] showed a pest or weed control at 140 g/ha of 75 to 84%.
